How the values were obtained:
[1] = Metabolic stability test in liver S9; type: in vitro ADME; conditions: pH 7.4, human liver S9 2 mg protein/mL, LC/MS; for remaining at 10 min: unchanged form after 10 minutes at 37°C, read-out: Remaining rate in human liver S9 (%/10min); for remaining at 1 h: unchanged form after 60 minutes at 37°C, read-out: Remaining rate in human liver S9 (%/60min)
Method in brief: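 Compound from DMSO solution was incubated at 37°C with human liver S9 (final 2 mg protein/mL) in 100 mM potassium phosphate pH 7.4 with an NADPH-regenerating system for 0, 10 and 60 minutes. Reactions were stopped with acetonitrile/0.1% formic acid. Unchanged compound was measured by LC/MS as remaining rate (%) relative to zero time.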

[2] = Metabolic stability test in plasma; type: in vitro ADME, human; conditions: LC/MS; for remaining at 10 min: unchanged form after 10 minutes at 37°C in human plasma, read-out: Remaining rate in human plasma (%/10min); for remaining at 1 h: unchanged form after 60 minutes at 37°C in human plasma, read-out: Remaining rate in human plasma (%/60min)
Method in brief: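 Remaining rate (%) versus zero time was derived from LC/MS measurement of parent compound after centrifugation. Plasma from human, mouse and hamster received DMSO-dissolved compound and was held at 37°C for 0, 10 or 60 minutes before acetonitrile containing formic acid (final 0.1%) stopped the reaction.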

[3] = Stability test in buffer (pH 7.4); type: physicochemical; conditions: phosphate buffer/acetonitrile 7:3, 100 mM potassium phosphate buffer (pH 7.4) and acetonitrile 7:3 (v/v), LC/MS; for remaining at 10 min: 10 minutes at 37°C, read-out: Buf. remaining rate (%/10min); for remaining at 1 h: 60 minutes at 37°C, read-out: Buf. remaining rate (%/60min)
Method in brief: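 Parent compound measured by LC/MS after 0, 10 or 60 min at 37°C in a 7:3 (v/v) mix of 100 mM potassium phosphate buffer and acetonitrile, with the reaction stopped by acetonitrile plus formic acid (final 0.1%). Percentage remaining is expressed relative to the zero-time amount.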

Row | SMILES | remaining at 10 min [1] | remaining at 1 h [1] | remaining at 10 min [2] | remaining at 1 h [2] | remaining at 10 min [3] | remaining at 1 h [3]
1 | COC(=O)c1cc(C)c(OC(=O)CCCc2ccc(NC(=O)c3ccc(C)nc3-c3ccc(C(F)(F)F)cc3)c(C(=O)N(C)C)c2)c(C(F)(F)F)c1 [Compound 1-45, 4-[4-(3-dimethylcarbamoyl-4-([6-methyl-2-(4-trifluoromethylphenyl)pyridine-3-carbonyl]amino}phenyl)butyryloxy]-3-methyl-5-trifluoromethylbenzoic acid methyl ester] | 12% | 2% | 89% | 48% | 101% | 102%
2 | COC(=O)c1cc(C)c(OC(=O)CCCc2ccc(NC(=O)c3ccc(C)nc3-c3ccc(C(F)(F)F)cc3)c(C(=O)N(C)C)c2)c(OC)c1 [Compound 1-46, 4-[4-(3-dimethylcarbamoyl-4-{[6-methyl-2-(4-trifluoromethylphenyl)pyridine-3-carbonyl]amino}phenyl)butyryloxy]-3-methoxy-5-methylbenzoic acid methyl ester] | 5% | 2% | 39% | 0% | 99% | 102%
3 | COC(=O)c1cc(OC)c(OC(=O)CCCc2ccc(NC(=O)c3ccc(C)nc3-c3ccc(C(F)(F)F)cc3)c(C(=O)N(C)C)c2)c(C(F)(F)F)c1 [Compound 1-47, 4-[4-(3-dimethylcarbamoyl-4-{[6-methyl-2-(4-trifluoromethylphenyl)pyridine-3-carbonyl]amino}phenyl)butyryloxy]-3-methoxy-5-trifluoromethylbenzoic acid methyl ester] | 14% | 0% | 0% | 0% | 96% | 97%
4 | CCOC(=O)c1cc(Cl)c(OC(=O)CCCc2ccc(NC(=O)c3ccc(C)nc3-c3ccc(C(F)(F)F)cc3)c(C(=O)N(C)C)c2)c(OC)c1 [Compound 1-48, 3-chloro-4-[4-(3-dimethylcarbamoyl-4-{[6-methyl-2-(4-trifluoromethylphenyl)pyridine-3-carbonyl]amino}phenyl)butyryloxy]-5-methoxybenzoic acid ethyl ester] | 16% | 6% | 0% | 0% | 99% | 97%
5 | CCOc1cc(C(=O)OC)cc(OC)c1OC(=O)CCCc1ccc(NC(=O)c2ccc(C)nc2-c2ccc(C(F)(F)F)cc2)c(C(=O)N(C)C)c1 [Compound 1-49, 4-[4-(3-dimethylcarbamoyl-4-{[6-methyl-2-(4-trifluoromethylphenyl)pyridine-3-carbonyl]amino}phenyl)butyryloxy]-3-ethoxy-5-methoxybenzoic acid methyl ester] | 6% | 1% | 0% | 0% | 100% | 100%
6 | COC(=O)c1cc(Br)c(OC(=O)CCCc2ccc(NC(=O)c3ccc(C)nc3-c3ccc(C(F)(F)F)cc3)c(C(=O)N(C)C)c2)c(OC)c1 [Compound 1-50, 3-bromo-4-[4-(3-dimethylcarbamoyl-4-{[6-methyl-2-(4-trifluoromethylphenyl)pyridine-3-carbonyl]amino}phenyl)butyryloxy]-5-methoxybenzoic acid methyl ester] | 7% | 2% | 0% | 0% | 97% | 103%
7 | CCc1cc(C(=O)OC)cc(C(=O)OC)c1OC(=O)CCCc1ccc(NC(=O)c2ccc(C)nc2-c2ccc(C(F)(F)F)cc2)c(C(=O)N(C)C)c1 [Compound 1-51, 4-[4-(3-dimethylcarbamoyl-4-([6-methyl-2-(4-trifluoromethylphenyl)pyridine-3-carbonyl]amino}phenyl)butyryloxy]-5-ethylisophthalic acid dimethyl ester] | 8% | 3% | 23% | 0% | 98% | 101%
8 | CCOC(=O)c1cc(C)c(OC(=O)CCCc2ccc(NC(=O)c3ccc(C)nc3-c3ccc(C(F)(F)F)cc3)c(C(=O)N(C)C)c2)c(C(=O)OC)c1 [Compound 1-52, 4-[4-(3-dimethylcarbamoyl-4-{[6-methyl-2-(4-trifluoromethylphenyl)pyridine-3-carbonyl]amino}phenyl)butyryloxy]-5-methylisophthalic acid 1-ethyl ester 3-methyl ester] | 13% | 4% | 12% | 0% | 100% | 101%
9 | COC(=O)c1cc(OC)c(OC(=O)CCCc2ccc(NC(=O)c3ccc(C)nc3-c3ccc(C(F)(F)F)cc3)c(C(=O)N(C)C)c2)c(C(=O)OC)c1 [Compound 1-53, 4-[4-(3-dimethylcarbamoyl-4-{[6-methyl-2-(4-trifluoromethylphenyl)pyridine-3-carbonyl]amino}phenyl)butyryloxy]-5-methoxyisophthalic acid dimethyl ester] | 5% | 2% | 3% | 3% | 100% | 106%
10 | COC(=O)c1cc(C)c(OC(=O)CCCc2ccc(NC(=O)c3ccccc3-c3ccc(C(F)(F)F)cc3)c(C(=O)N(C)C)c2)c(C)c1 [Compound 1-64, 4-[4-(3-dimethylcarbamoyl-4-{(4'-trifluoromethylbiphenyl-2-carbonyl)amino}phenyl)butyryloxy]-3,5-dimethylbenzoic acid methyl ester] | 21% | 4% | 98% | 93% | 100% | 101%
11 | COC(=O)c1cc(C)c(OC(=O)CCCc2ccc(NC(=O)c3ccc(C)nc3-c3ccc(C(F)(F)F)cc3)c(C(=O)N(C)C)c2)c(C)c1 [Compound 1-65, 4-[4-(3-dimethylcarbamoyl-4-{[6-methyl-2-(4-trifluoromethylphenyl)pyridine-3-carbonyl]amino}phenyl)butyryloxy]-3,5-dimethylbenzoic acid methyl ester] | 8% | 0% | 98% | 94% | 104% | 104%
12 | COC(=O)c1ccc(OC(=O)CCCc2ccc(NC(=O)c3ccccc3-c3ccc(C(F)(F)F)cc3)c(C(=O)N(C)C)c2)c(C)c1 [Compound 1-66, 4-[4-(3-dimethylcarbamoyl-4-{(4'-trifluoromethylbiphenyl-2-carbonyl)amino}phenyl)butyryloxy]-3-methylbenzoic acid methyl ester] | 3% | 0% | 67% | 8% | 101% | 103%
13 | CCc1cc(C(=O)OC)ccc1OC(=O)CCCc1ccc(NC(=O)c2ccccc2-c2ccc(C(F)(F)F)cc2)c(C(=O)N(C)C)c1 [Compound 1-67, 4-[4-(3-dimethylcarbamoyl-4-{(4'-trifluoromethylbiphenyl-2-carbonyl)amino}phenyl)butyryloxy]-3-ethylbenzoic acid methyl ester] | 3% | 0% | 77% | 17% | 103% | 105%
14 | COC(=O)c1ccc(OC(=O)CCCc2ccc(NC(=O)c3ccccc3-c3ccc(C(F)(F)F)cc3)c(C(=O)N(C)C)c2)c(C(C)C)c1 [Compound 1-68, 4-[4-(3-dimethylcarbamoyl-4-{(4'-trifluoromethylbiphenyl-2-carbonyl)amino}phenyl)butyryloxy]-3-isopropylbenzoic acid methyl ester] | 11% | 3% | 77% | 18% | 101% | 103%
15 | COC(=O)c1ccc(OC(=O)CCCc2ccc(NC(=O)c3ccc(C)nc3-c3ccc(C(F)(F)F)cc3)c(C(=O)N(C)C)c2)c(C)c1 [Compound 1-69, 4-[4-(3-dimethylcarbamoyl-4-{[6-methyl-2-(4-trifluoromethylphenyl)pyridine-3-carbonyl]amino}phenyl)butyryloxy]-3-methylbenzoic acid methyl ester] | 0% | 0% | 70% | 11% | 101% | 106%

From patent EP1803452A1, “ESTER DERIVATIVE AND PHARMACEUTICAL USE THEREOF” (Japan Tobacco, Inc., priority 2004, dated 2006)
